Data: article PMC12767106, “In Situ Assembly of Transformable Monopeptide on Activated Neutrophils Attenuates NETs‐Induced Hepatocellular Carcinoma Metastasis by Disrupting NE Nuclear Translocation” (Advanced Science, 2025)

Key:
activated neutrophils = assay: Retention on neutrophil membrane, flow cytometry of PpIX; assay type: cell-based, mouse; conditions: 50 µM, NPs washed off after 4 h, fresh medium for another 8 h
[1] = Nanoparticle size stability by DLS; assay type: physicochemical; conditions: room temperature, 20 µM, up to 168 h, method and Figure S3 legend name H2O and medium, repeated thrice
[2] = Particle diameter by DLS and TEM; assay type: physicochemical; conditions: 20 µM NPs in H2O:DMSO 99:1, before interaction with NE
Source text: Submitted to Advanced Science
We obtained hepatocellular carcinoma (TCGA-LIHC) transcriptomic data from the Cancer Genome Atlas (TCGA) database (https://portal.gdc.cancer.gov/), quantified as transcripts per million (TPM). Tumor samples with complete clinical annotations (overall survival (OS), age, stage, etc.) were retained for further analysis.
Another HCC gene expression profile under the accession number E-TABM-36, containing 44 samples with available survival prognosis information, was obtained from the EBI Array database (https://www.ebi.ac.uk/arrayexpress/) as a validation set. […]
after being further diluted with DMSO (995, 795, 595, 395, 195, 95, 15, and 0 μL). To confirm the generation of NPs, measurements were made of the ultraviolet-visible (UV-vis) absorbance (UV-2600i, Japan) at approximately 410 nm and the fluorescence spectra (Cary 5000, Malaysia) at approximately 635 nm of solutions with different water contents. […]
temperature. […] In addition, the variation of fluorescence emission spectra of PpIX by […]
Pyrene molecules were employed as an indicator to determine the critical aggregation concentration (CAC) of nanoparticles by comparing the fluorescence of their third and first emissive peaks. […] The fluorescence spectra of pyrene (excitation, 335 nm) in different NPs dilutions were recorded. […]

Substance | PpIX fluorescence on activated neutrophils from 4 h to 12 h (retention) (activated neutrophils) | size change in PBS and FBS solutions within 168 h [1] | diameter [2]
PpIX-GFFVLK-EAIPMSIPPEVK [FTP-NPs] | persistently strong PpIX fluorescence signals | did not change significantly | 24.27±4.50 nm and ≈ 25 nm
PpIX-GGGAAK-EAIPMSIPPEVK [NFTP-NPs, nanoparticles of the non-fibrillar transformable control peptide NFTP] | dropped sharply | did not change significantly | 26.13±3.23 nm
